Source: ChEMBL document CHEMBL1687887, “Evolution of potent and stable placental-growth-factor-1-targeting CovX-bodies from phage display peptide discovery” (J Med Chem, 2011)
Numbered stars: 1 amine (or outer) side, 2 acyl side, 3 side chain; on linkers, the order of the positions; unused ones are H or OH. Bridge positions count the residues as written; N and C are the ends. Square brackets hold non-standard residues; d marks the D form. Peptide text beside a SMILES is read from it. * marks the point of attachment. X2 = NCCCC[C@H](N[*:1])C(=O)NC(=O)COCC(=O)[*:2]; X1 = O=C(COCC(=O)*)Nc1ccc(CCC(=O)N2CCC2=O)cc1; X3 = O=C(CCc1ccc(N*)cc1)N1CCC1=O; Aad = N[C@@H](CCCC(=O)O)C(=O)O

These molecules were tested against T1, Placenta growth factor (Homo sapiens, UniProt P49763) (assay: Inhibition of human PlGF-1-VEGFR-1 interaction by ELISA). Details: not given; call rule not given here.
T1 sequence (P49763 whole entry): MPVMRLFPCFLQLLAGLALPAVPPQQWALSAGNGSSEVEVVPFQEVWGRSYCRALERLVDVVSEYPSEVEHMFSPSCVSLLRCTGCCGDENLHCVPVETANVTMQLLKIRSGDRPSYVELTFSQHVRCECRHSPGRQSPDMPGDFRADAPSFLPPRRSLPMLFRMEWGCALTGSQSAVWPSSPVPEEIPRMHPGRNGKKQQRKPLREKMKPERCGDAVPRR

IC50 [µM] | Compound
9 | CC[C@H](C)[C@H](NC(=O)[C@H](CC(=O)O)NC(=O)[C@H](Cc1ccc(O)cc1)NC(C)=O)C(=O)N[C@H]1CSSC[C@@H](C(=O)N[C@@H](CCCCN)C(=O)N[C@@H](C)C(=O)N[C@H](C(N)=O)C(C)C)NC(=O)[C@H](Cc2cnc[nH]2)NC(=O)[C@@H]2CCCN2C(=O)[C@H](CC(C)C)NC(=O)[C@H](CCCNC(=N)N)NC(=O)[C@H]([C@@H](C)CC)NC(=O)[C@H](Cc2ccc(O)cc2)NC(=O)[C@H](CCCCN)NC1=O (Ac-YDICKYIRLPHCKAV-NH2; disulfide 4-12)
9 | CC[C@H](C)[C@H](NC(=O)[C@H](CC(=O)O)NC(=O)[C@H](Cc1ccc(O)cc1)NC(C)=O)C(=O)N[C@H]1CSSC[C@@H](C(=O)N[C@@H](CCCN=C(N)N)C(=O)N[C@@H](C)C(=O)N[C@H](C(N)=O)C(C)C)NC(=O)[C@H](Cc2cnc[nH]2)NC(=O)[C@@H]2CCCN2C(=O)[C@H](CC(C)C)NC(=O)[C@H](CCCNC(=N)N)NC(=O)[C@H]([C@@H](C)CC)NC(=O)[C@H](Cc2ccc(O)cc2)NC(=O)[C@H](CCCCN)NC1=O (Ac-YDICKYIRLPHCRAV-NH2; disulfide 4-12)
1 | CSCC[C@H](NC(=O)[C@H](CCCCN)NC(=O)[C@@H]1CSSC[C@H](NC(=O)[C@@H](NC(=O)[C@H](CC(=O)O)NC(=O)[C@H](Cc2ccccc2)NC(C)=O)C(C)C)C(=O)N[C@@H](CC(N)=O)C(=O)N[C@@H](Cc2c[nH]c3ccccc23)C(=O)N[C@@H](C(C)C)C(=O)N[C@@H]([C@@H](C)O)C(=O)N[C@@H](CC(C)C)C(=O)N2CCC[C@H]2C(=O)N[C@@H](Cc2cnc[nH]2)C(=O)N1)C(=O)N[C@@H](CCCC(N)=O)C(N)=O (Ac-FDVCNWVTLPHCKM[Aad](NH2)-NH2; disulfide 4-12)
5 | CSCC[C@H](NC(=O)[C@@H](NC(=O)[C@H](CCCNC(=N)N)NC(=O)[C@@H]1CSSC[C@H](NC(=O)[C@@H](NC(=O)[C@H](CC(=O)O)NC(=O)[C@H](Cc2ccccc2)NC(C)=O)C(C)C)C(=O)N[C@@H](CCCCN)C(=O)N[C@@H](Cc2c[nH]c3ccccc23)C(=O)N[C@@H](C(C)C)C(=O)N[C@@H]([C@@H](C)O)C(=O)N[C@@H](CC(C)C)C(=O)N2CCC[C@H]2C(=O)N[C@@H](Cc2cnc[nH]2)C(=O)N1)C(C)C)C(N)=O (Ac-FDVCKWVTLPHCRVM-NH2; disulfide 4-12)
5 | CSCC[C@H](NC(=O)[C@@H](NC(=O)[C@H](CCCN=C(N)N)NC(=O)[C@@H]1CSSC[C@H](NC(=O)[C@@H](NC(=O)[C@H](CC(=O)O)NC(=O)[C@H](Cc2ccccc2)NC(C)=O)C(C)C)C(=O)N[C@@H](CC(N)=O)C(=O)N[C@@H](Cc2c[nH]c3ccccc23)C(=O)N[C@@H](C(C)C)C(=O)NCC(=O)N[C@@H](CC(C)C)C(=O)N[C@@H](C)C(=O)N[C@@H](Cc2cnc[nH]2)C(=O)N1)C(C)C)C(N)=O (Ac-FDVCNWVGLAHCRVM-NH2; disulfide 4-12)
1 | CSCC[C@H](NC(=O)[C@@H](NC(=O)[C@H](CCCCN)NC(=O)[C@@H]1CSSC[C@H](NC(=O)[C@@H](NC(=O)[C@H](CC(=O)O)NC(=O)[C@H](Cc2ccccc2)NC(C)=O)C(C)C)C(=O)N[C@@H](CC(N)=O)C(=O)N[C@@H](Cc2c[nH]c3ccccc23)C(=O)N[C@@H](C(C)C)C(=O)N[C@@H]([C@@H](C)O)C(=O)N[C@@H](CC(C)C)C(=O)N2CCC[C@H]2C(=O)N[C@@H](Cc2cnc[nH]2)C(=O)N1)C(C)C)C(N)=O (Ac-FDVCNWVTLPHCKVM-NH2; disulfide 4-12)
100 | CC[C@H](C)[C@H](NC(=O)[C@H](CC(=O)O)NC(=O)[C@H](Cc1ccc(O)cc1)NC(C)=O)C(=O)N[C@H]1CSSC[C@@H](C(=O)N[C@@H](Cc2ccccc2)C(=O)N[C@@H](C)C(=O)N[C@H](C(N)=O)C(C)C)NC(=O)[C@H](Cc2cnc[nH]2)NC(=O)[C@@H]2CCCN2C(=O)[C@H](CC(C)C)NC(=O)[C@H](CCCNC(=N)N)NC(=O)[C@H]([C@@H](C)CC)NC(=O)[C@H](Cc2ccc(O)cc2)NC(=O)[C@H](Cc2cnc[nH]2)NC1=O (Ac-YDICHYIRLPHCFAV-NH2; disulfide 4-12)
100 | CC[C@H](C)[C@H](NC(=O)[C@@H]1CSSC[C@H](NC(=O)[C@@H](NC(=O)[C@H](CCC(N)=O)NC(=O)[C@H](Cc2c[nH]c3ccccc23)NC(C)=O)[C@@H](C)CC)C(=O)N[C@@H](CC(=O)O)C(=O)N[C@@H]([C@@H](C)CC)C(=O)N[C@@H](CC(C)C)C(=O)N[C@@H]([C@@H](C)O)C(=O)N[C@@H](CC(C)C)C(=O)N2CCC[C@H]2C(=O)N[C@@H](Cc2cnc[nH]2)C(=O)N1)C(=O)N[C@@H](Cc1ccccc1)C(=O)N[C@@H](CC(N)=O)C(N)=O (Ac-WQICDILTLPHCIFN-NH2; disulfide 4-12)
9 | CSCC[C@H](NC(=O)[C@@H](NC(=O)[C@H](CCCNC(=N)N)NC(=O)[C@@H]1CSSC[C@H](NC(=O)[C@@H](NC(=O)[C@H](CC(=O)O)NC(=O)[C@H](Cc2ccccc2)NC(C)=O)C(C)C)C(=O)N[C@@H](CC(N)=O)C(=O)N[C@@H](Cc2c[nH]c3ccccc23)C(=O)N[C@@H](C(C)C)C(=O)NCC(=O)N[C@@H](CC(C)C)C(=O)N2CCC[C@H]2C(=O)N[C@@H](Cc2cnc[nH]2)C(=O)N1)C(C)C)C(N)=O (Ac-FDVCNWVGLPHCRVM-NH2; disulfide 4-12)
100 | CC[C@H](C)[C@H](NC(=O)[C@H](C)NC(=O)[C@H](CC(C)C)NC(=O)[C@@H]1CSSC[C@H](NC(=O)[C@@H](NC(=O)[C@H](CC(=O)O)NC(=O)[C@H](CC(C)C)NC(C)=O)C(C)C)C(=O)N[C@@H](CC(C)C)C(=O)N[C@@H](Cc2c[nH]c3ccccc23)C(=O)N[C@@H](C(C)C)C(=O)N[C@@H](CO)C(=O)N[C@@H](CC(C)C)C(=O)N2CCC[C@H]2C(=O)N[C@@H](Cc2cnc[nH]2)C(=O)N1)C(N)=O (Ac-LDVCLWVSLPHCLAI-NH2; disulfide 4-12)
1 | CSCC[C@H](NC(=O)[C@H](CCCCN)NC(=O)[C@@H]1CSSC[C@H](NC(=O)[C@@H](NC(=O)[C@H](CC(=O)O)NC(=O)[C@H](Cc2ccccc2)NC(C)=O)C(C)C)C(=O)N[C@@H](CCCCN)C(=O)N[C@@H](Cc2c[nH]c3ccccc23)C(=O)N[C@@H](C(C)C)C(=O)N[C@@H]([C@@H](C)O)C(=O)N[C@@H](CC(C)C)C(=O)N2CCC[C@H]2C(=O)N[C@@H](Cc2cnc[nH]2)C(=O)N1)C(=O)N[C@@H](CCCC(N)=O)C(N)=O (Ac-FDVCKWVTLPHCKM[Aad](NH2)-NH2; disulfide 4-12)

The molecules below were run against T1, Placenta growth factor (assay: Binding affinity to human PlGF-1). Details: not given.

Kd | Compound
Not Active | N=C(N)NCCC[C@@H]1NC(=O)[C@H](CCCCNC(=O)COCC(=O)Nc2ccc(CCC(=O)N3CCC3=O)cc2)NC(=O)[C@@H](Cc2ccccc2)NC(=O)[C@H](CC(=O)O)NC(=O)CNC1=O

Same assay, conditions: read-out: Kd

Kd [µM] | Compound
0.005 | CC(=O)NCCCC[C@H](NC(=O)[C@@H]1CSSC[C@H](NC(=O)[C@@H](NC(=O)[C@H](CC(=O)O)NC(=O)[C@H](Cc2ccccc2)NC(C)=O)C(C)C)C(=O)N[C@@H](CC(N)=O)C(=O)N[C@@H](Cc2c[nH]c3ccccc23)C(=O)N[C@@H](C(C)C)C(=O)N[C@@H]([C@@H](C)O)C(=O)N[C@@H](CC(C)C)C(=O)N2CCC[C@H]2C(=O)N[C@@H](Cc2cnc[nH]2)C(=O)N1)C(=O)N[C@H](C(=O)N[C@@H](CCCCN)C(=O)NC(=O)COCC(=O)Nc1ccc(CCC(=O)N2CCC2=O)cc1)C(C)C (Ac-FDVCNWVTLPHCK(Ac)V[X2]-X3; disulfide 4-12)
> 1 | CSCC[C@H](NC(=O)[C@@H](NC(=O)[C@H](CCCCNC(C)=O)NC(=O)[C@@H]1CSSC[C@H](NC(=O)[C@@H](NC(=O)[C@H](CCCCNC(=O)COCC(=O)Nc2ccc(CCC(=O)N3CCC3=O)cc2)NC(=O)[C@H](Cc2ccccc2)NC(C)=O)C(C)C)C(=O)N[C@@H](CC(N)=O)C(=O)N[C@@H](Cc2c[nH]c3ccccc23)C(=O)N[C@@H](C(C)C)C(=O)N[C@@H]([C@@H](C)O)C(=O)N[C@@H](CC(C)C)C(=O)N2CCC[C@H]2C(=O)N[C@@H](Cc2cnc[nH]2)C(=O)N1)C(C)C)C(N)=O (Ac-FK(X1)VCNWVTLPHCK(Ac)VM-NH2; disulfide 4-12)
> 1 | CSCC[C@H](NC(=O)[C@@H](NC(=O)[C@H](CCCCNC(C)=O)NC(=O)[C@@H]1CSSC[C@H](NC(=O)[C@@H](NC(=O)[C@H](CC(=O)O)NC(=O)[C@H](CCCCNC(=O)COCC(=O)Nc2ccc(CCC(=O)N3CCC3=O)cc2)NC(C)=O)C(C)C)C(=O)N[C@@H](CC(N)=O)C(=O)N[C@@H](Cc2c[nH]c3ccccc23)C(=O)N[C@@H](C(C)C)C(=O)N[C@@H]([C@@H](C)O)C(=O)N[C@@H](CC(C)C)C(=O)N2CCC[C@H]2C(=O)N[C@@H](Cc2cnc[nH]2)C(=O)N1)C(C)C)C(N)=O (Ac-K(X1)DVCNWVTLPHCK(Ac)VM-NH2; disulfide 4-12)
0.008 | CC(=O)NCCCC[C@@H]1NC(=O)[C@@H](NC(=O)[C@@H](NC(=O)[C@H](CC(=O)O)NC(=O)[C@H](Cc2ccccc2)NC(C)=O)C(C)C)CSSC[C@@H](C(=O)N[C@@H](CCCCNC(C)=O)C(=O)N[C@H](C(=O)N[C@@H](CCCCN)C(=O)NC(=O)COCC(=O)Nc2ccc(CCC(=O)N3CCC3=O)cc2)C(C)C)NC(=O)[C@H](Cc2cnc[nH]2)NC(=O)[C@@H]2CCCN2C(=O)[C@H](CC(C)C)NC(=O)[C@H]([C@@H](C)O)NC(=O)[C@H](C(C)C)NC(=O)[C@H](Cc2c[nH]c3ccccc23)NC1=O (Ac-FDVCK(Ac)WVTLPHCK(Ac)V[X2]-X3; disulfide 4-12)
> 1 | CSCC[C@H](NC(=O)[C@@H](NC(=O)[C@H](CCCCNC(C)=O)NC(=O)[C@@H]1CSSC[C@H](NC(=O)[C@@H](NC(=O)[C@H](CC(=O)O)NC(=O)[C@H](Cc2ccccc2)NC(=O)COCC(=O)Nc2ccc(CCC(=O)N3CCC3=O)cc2)C(C)C)C(=O)N[C@@H](CC(N)=O)C(=O)N[C@@H](Cc2c[nH]c3ccccc23)C(=O)N[C@@H](C(C)C)C(=O)N[C@@H]([C@@H](C)O)C(=O)N[C@@H](CC(C)C)C(=O)N2CCC[C@H]2C(=O)N[C@@H](Cc2cnc[nH]2)C(=O)N1)C(C)C)C(N)=O (X1-FDVCNWVTLPHCK(Ac)VM-NH2; disulfide 4-12)
